According to patent publication US20050014942A1, “Amide derivatives and drugs” (priority 2001, published 2005):
Structures can show the parent of a compound that is named as a salt.

Tested on: collagen production induced by TGF-β (NHDF cells)
Assay: Inhibitory effect on collagen production induced by TGF-β, [3H] proline uptake (NHDF cells)
Assay type: cell-based, human
Conditions: TGF-β1 3 ng/ml; for inhibition at 3 µM / inhibition at 10 µM / inhibition at 1 µM: Homo sapiens, NHDF
Method: As an index of collagen production, the uptake of [^3H] proline was measured.
Using a 96-well microplate, normal human skin derived fibroblast (NHDF, 10^4/well) or human embryonic lung fibroblast (TIG-3, 10^4/well) were cultured in a 10% fetal calf serum (FCS)-containing Dulbecco's modified Eagle medium (DMEM) for one day. After removing the culture supernatant, the cells were washed once with a 0.1% bovine serum albumin (BSA)-containing DMEM medium and then cultured in the 0.1% bovine serum albumin (BSA)-containing DMEM medium for one day. After adding each of the test compounds in each concentration (1, 3, 10 μM), the cells were cultured and, after adding TGF-β1 (3 ng/ml) and [^3H] proline (18.5 kBq/well), the cells were further cultured for additional one day.
After removing the culture supernatant, the cells were washed twice with a phosphate buffer solution (PBS) and dissolved with 0.3M NaOH and 1% sodium dodecylsulfate (SDS), and then each protein fraction was precipitated with trichloroacetic acid (TCA) After the precipitate was filtered through a glass filter (GF/B) and washed, the quantity of [^3H] proline on the glass filter was measured by a liquid scintillation counter. The number of cells was measured by a cell growth measuring kit (XTT, Roche) and the uptake of [^3H] proline was corrected by the number of cells. Inhibitory ratio was calculated as compared with the case where a difference between the uptake of [^3H] proline with or without TGF-β1.

Compound | inhibition at 3 µM | inhibition at 10 µM | inhibition at 1 µM (1 μM) | Inhibitory effect on collagen production induced by TGF-β (% inhibition) (1 μM)
COc1ccc(CCN(C)C(=O)/C=C/c2c(-c3ccc4c(c3)OCO4)n(C)c3ccccc23)cc1OC [Example 115, (2E)-N-methyl-N-[2-(3,4-dimethoxyphenyl)ethyl]-3-[1-methyl-2-(3,4-methylenedioxyphenyl)-1H-indol-3-yl]acrylamide] | 84% | 155% |  | 
COC(=O)c1ccc(-c2c(/C=C/C(=O)N3CCC(C(C)=O)(c4ccccc4)CC3)c3cc(C)ccc3n2C)cc1 [Example 141, 4-acetyl-1-{(2E)-3-[1,5-dimethyl-2-(4-carbomethoxyphenyl)-1H-indol-3-yl]prop-2-enoyl}-4-phenylpiperidine] | 114% |  | 111% | 
Cn1c(-c2ccccc2)c(/C=C/C(=O)NCC2CN(Cc3ccc(F)cc3)CCO2)c2ccccc21 (stereo not drawn) [Example 30, (2E)-N-{[4-(4-fluorobenzyl)morpholin-2-yl]methyl}-3-(1-methyl-2-phenyl-1H-indol-3-yl)acrylamide hydrochloride] | 94% | 148% | 41% | 
COc1ccc(-c2c(/C=C/C(=O)N(C)CCC(O)c3ccccc3)c3ccccc3n2C)cc1 (stereo not drawn) [Example 119, (2E)-N-methyl-N-(3-hydroxy-3-phenylpropyl)-3-[1-methyl-2-(4-methoxyphenyl)-1H-indol-3-yl]acrylamide] | 75% | 153% |  | 
COc1cc2c(cc1OC)CN(C(=O)/C=C/c1c(-c3ccccc3)n(C)c3nccnc13)CC2 [Example 128, 2-[(2E)-3-(5-methyl-6-phenyl-5H-pyrrolo[2,3-b]pyrazin-7-yl)prop-2-enoyl]-6,7-dimethoxy-1,2,3,4-tetrahydroisoquinoline hydrochloride] | 76% |  | 61% | 
Cc1ncsc1CCNC(=O)c1cnc(N2CCN(C(=O)c3c(-c4ccccc4)n(C)c4ccc(Br)cc34)CC2)cn1 [Example 144, 5-{4-[(5-bromo-1-methyl-2-phenyl-1H-indol-3-yl)carbonyl]piperazin-1-yl}-N-[2-(4-methyl-1,3-thiazol-5-yl)ethyl]pyrazine-2-carboxamide hydrochloride] | 85% |  | 78% | 
COc1cc2c(cc1OC)CN(C(=O)/C=C/c1c(-c3ccccc3)n(C)c3cccnc13)CC2 [Example 136, 2-[(2E)-3-(1-methyl-2-phenyl-1H-pyrrolo[3,2-b]pyridin-3-yl)prop-2-enoyl]-6,7-dimethoxy-1,2,3,4-tetrahydroisoquinoline hydrochloride] | 111% |  | 66% | 
Cc1ncsc1CCNC(=O)c1cnc(N2CCN(C(=O)c3c(-c4ccccc4)n(C)c4ccc(F)cc34)CC2)cn1 [Example 147, 5-{4-[(5-fluoro-1-methyl-2-phenyl-1H-indol-3-yl)carbonyl]piperazin-1-yl}-N-[2-(4-methyl-1,3-thiazol-5-yl)ethyl]pyrazine-2-carboxamide dihydrochloride] | 59% |  | 29% | 
CN1CCC(N(C)C(=O)/C=C/c2c(-c3ccccc3)n(C)c3ncccc23)CC1 [Example 122, (2E)-N-methyl-N-(1-methyl-piperidin-4-yl)-3-(1-methyl-2-phenyl-1H-pyrrolo[2,3-b]pyridin-3-yl)acrylamide] | 57% |  | 20% | 
COc1cc2c(cc1OC)CN(C(=O)/C=C/c1c(-c3ccccc3)n(C)c3cnccc13)CC2 [Example 130, 2-[(2E)-3-(1-methyl-2-phenyl-1H-pyrrolo[2,3-c]pyridin-3-yl)prop-2-enoyl]-6,7-dimethoxy-1,2,3,4-tetrahydroisoquinoline hydrochloride] | 157% |  | 92% | 
COc1cc2c(cc1OC)C(CC(=O)O)N(C(=O)/C=C/c1c(-c3ccccc3)n(C)c3ncccc13)CC2 (stereo not drawn) [Example 124, {6,7-dimethoxy-2-[(2E)-3-(1-methyl-2-phenyl-1H-pyrrolo[2,3-b]pyridin-3-yl)prop-2-enoyl]-1,2,3,4-tetrahydroisoquinolin-1-yl}acetic acid] | 108% |  |  | 21%
Cn1c(-c2ccc3c(c2)OCO3)c(/C=C/C(=O)N[C@@H]2c3ccccc3C[C@@H]2O)c2ccccc21 [Example 113, (2E)-N-[(1R,2S)-2-hydroxy-2,3-dihydro-1H-inden-1-yl]-3-[1-methyl-2-(3,4-methylenedioxyphenyl)-1H-indol-3-yl]acrylamide] | 88% | 148% |  | 
Cn1c(-c2ccc3c(c2)OCO3)c(/C=C/C(=O)N(CCCCO)Cc2ccccc2)c2ccccc21 [Example 116, (2E)-N-(4-hydroxybutyl)-N-benzyl-3-[1-methyl-2-(3,4-methylenedioxyphenyl)-1H-indol-3-yl]acrylamide] | 76% | 168% |  | 
Cc1ccc2c(c1)c(C(=O)N1CCN(c3cnc(C(=O)N(C)[C@@H](Cc4ccccc4)C(=O)O)cn3)CC1)c(-c1ccccc1)n2C [Example 132, N-methyl-N-[(5-{4-[(1,5-dimethyl-2-phenyl-1H-indol-3-yl)carbonyl]piperazin-1-yl}pyrazin-2-yl)carbonyl]-(S)-phenylalanine] | 122% |  | 67% | 
CC(=O)C1(c2ccccc2)CCN(C(=O)C=Cc2c(-c3ccc(C(=O)O)cc3)n(C)c3ccc(C)cc23)CC1 [Example 146, 4-{3-[3-(4-acetyl-4-phenylpiperidin-1-yl)-3-oxo-1-propenyl]-1,5-dimethyl-1H-indol-2-yl}benzoic acid] | 60% |  | 43% | 
COc1cc2c(cc1OC)CN(C(=O)/C=C/c1c(-c3ccc(F)cc3)n(C)c3ncccc13)CC2 [Example 140, 2-{(2E)-3-[1-methyl-2-(4-fluorophenyl)-1H-pyrrolo[2,3-b]pyridin-3-yl]prop-2-enoyl}-6,7-dimethoxy-1,2,3,4-tetrahydroisoquinoline hydrochloride] | 171% |  | 140% | 
COc1cccc(-c2c(/C=C/C(=O)N(C)CCC(O)c3ccccc3)c3ccccc3n2C)c1 (stereo not drawn) [Example 118, (2E)-N-methyl-N-(3-hydroxy-3-phenylpropyl)-3-[1-methyl-2-(3-methoxyphenyl)-1H-indol-3-yl]acrylamide] | 81% | 147% |  | 
COC(=O)c1ccc(-c2c(/C=C/C(=O)N(C)C3CCN(C)CC3)c3cc(C)ccc3n2C)cc1 [Example 143, (2E)-N-methyl-N-(1-methylpiperidin-4-yl)-3-[1,5-dimethyl-2-(4-carbomethoxyphenyl)-1H-indol-3-yl]acrylamide] | 104% |  | 42% | 
CCOC(=O)C1CCCCC1NC(=O)c1cnc(N2CCN(C(=O)c3c(-c4ccccc4)n(C)c4ccc(C)cc34)CC2)cn1 (stereo not drawn) [Example 127, Ethyl 2-{N-[(5-{4-[(1,5-dimethyl-2-phenyl-1H-indol-3-yl)carbonyl]piperazin-1-yl}pyrazin-2-yl)carbonyl]amino}-1-cyclohexanecarboxylate] | 78% |  | 72% | 
Cn1c(-c2ccccc2)c(/C=C/C(=O)N(CCc2cccs2)CC(=O)O)c2cccnc21 [Example 137, N-[(2E)-3-(1-methyl-2-phenyl-1H-pyrrolo[2,3-b]pyridin-3-yl)prop-2-enoyl]-N-[2-(2-thienyl)ethyl]aminoacetic acid] | 72% |  | 38% | 
COc1cc2c(cc1OC)CN(C(=O)/C=C/c1c(-c3ccncc3)n(C)c3ncccc13)CC2 [Example 135, 2-{(2E)-3-[1-methyl-2-(4-pyridyl)-1H-pyrrolo[2,3-b]pyridin-3-yl]prop-2-enoyl}-6,7-dimethoxy-1,2,3,4-tetrahydroisoquinoline dihydrochloride] | 110% |  | 78% | 
CC(=O)OCCN(Cc1ccccc1)C(=O)c1cnc(N2CCN(C(=O)c3c(-c4ccccc4)n(C)c4ccc(C)cc34)CC2)cn1 [Example 125, N-benzyl-N-[(5-{4-[(1,5-dimethyl-2-phenyl-1H-indol-3-yl)carbonyl]piperazin-1-yl}pyrazin-2-yl)carbonyl]aminoethyl acetate] | 91% |  | 52% | 
Cn1c(-c2ccccc2)c(/C=C/C(=O)N[C@@H]2c3ccccc3C[C@@H]2O)c2cc3c(cc21)OCO3 [Example 97, (2E)-N-[(1R, 2S)-2-hydroxy-2,3-dihydro-1H-inden-1-yl]-3-(1-methyl-2-phenyl-5,6-methylenedioxy-1H-indol-3-yl)acrylamide] | 69% |  | 37% | 
COC(=O)c1ccc(-c2c(/C=C/C(=O)N3CCc4cc(OC)c(OC)cc4C3)c3cc(C)ccc3n2C)cc1 [Example 142, 2-{(2E)-3-[1,5-dimethyl-2-(4-carbomethoxyphenyl)-1H-indol-3-yl]prop-2-enoyl}-6,7-dimethoxy-1,2,3,4-tetrahydroisoquinoline] | 130% |  | 65% | 
COc1cccc2c(/C=C/C(=O)N(C)CCC(O)c3ccccc3)c(-c3ccccc3)n(C)c12 (stereo not drawn) [Example 111, (2E)-N-methyl-N-(3-hydroxy-3-phenylpropyl)-3-(1-methyl-2-phenyl-7-methoxy-1H-indol-3-yl)acrylamide] | 82% | 168% |  | 
